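Step 1: Grow cells in 96-well plates. Step 2: Expose to compound for 48 hours at 5 concentrations. Step 3: Interpolate endpoints linearly; if unreached, use highest concentration. GI50: concentration for 50% inhibition of growth. The concentration for full growth arrest is given as TGI.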
What was measured:
Assay in all cases: inhibition of tumour cell growth, NCI panel, 48 h
A498 renal = tested on: A498 renal
SF-268 CNS = tested on: SF-268 CNS
SF-539 CNS = tested on: SF-539 CNS
SK-MEL-28 melanoma = tested on: SK-MEL-28 melanoma
HCT-116 colon = tested on: HCT-116 colon
RPMI-8226 leukemia = tested on: RPMI-8226 leukemia
IGROV1 ovarian = tested on: IGROV1 ovarian
SR leukemia = tested on: SR leukemia
LOX IMVI melanoma = tested on: LOX IMVI melanoma
OVCAR-5 ovarian = tested on: OVCAR-5 ovarian
HOP-92 NSCLC = tested on: HOP-92 NSCLC
SNB-75 CNS = tested on: SNB-75 CNS
SF-295 CNS = tested on: SF-295 CNS
M14 melanoma = tested on: M14 melanoma
HL-60(TB) leukemia = tested on: HL-60(TB) leukemia
UACC-62 melanoma = tested on: UACC-62 melanoma
PC-3 prostate = tested on: PC-3 prostate
MDA-MB-435 = tested on: MDA-MB-435
786-0 renal = tested on: 786-0 renal
MALME-3M melanoma = tested on: MALME-3M melanoma
U251 CNS = tested on: U251 CNS
BT-549 breast = tested on: BT-549 breast
HCC-2998 colon = tested on: HCC-2998 colon
SN12C renal = tested on: SN12C renal
EKVX NSCLC = tested on: EKVX NSCLC
NCI-H460 lung = tested on: NCI-H460 lung
COLO 205 colon = tested on: COLO 205 colon
CCRF-CEM leukemia = tested on: CCRF-CEM leukemia
MDA-MB-231 breast = tested on: MDA-MB-231 breast
CAKI-1 renal = tested on: CAKI-1 renal
NCI-H522 lung = tested on: NCI-H522 lung
NCI/ADR-RES ovarian = tested on: NCI/ADR-RES ovarian
OVCAR-8 ovarian = tested on: OVCAR-8 ovarian
MOLT-4 leukemia = tested on: MOLT-4 leukemia
HS 578T breast = tested on: HS 578T breast
TK-10 renal = tested on: TK-10 renal
SK-OV-3 ovarian = tested on: SK-OV-3 ovarian
UO-31 renal = tested on: UO-31 renal
SK-MEL-2 melanoma = tested on: SK-MEL-2 melanoma
SW-620 colon = tested on: SW-620 colon
KM12 colon = tested on: KM12 colon
UACC-257 melanoma = tested on: UACC-257 melanoma
ACHN renal = tested on: ACHN renal
RXF 393 renal = tested on: RXF 393 renal
MCF7 breast = tested on: MCF7 breast
DU-145 prostate = tested on: DU-145 prostate
SNB-19 CNS = tested on: SNB-19 CNS
NCI-H226 lung = tested on: NCI-H226 lung
OVCAR-4 ovarian = tested on: OVCAR-4 ovarian
HCT-15 colon = tested on: HCT-15 colon
SK-MEL-5 melanoma = tested on: SK-MEL-5 melanoma
HT29 colon = tested on: HT29 colon
K-562 leukemia = tested on: K-562 leukemia
T-47D breast = tested on: T-47D breast
OVCAR-3 ovarian = tested on: OVCAR-3 ovarian
HOP-62 NSCLC = tested on: HOP-62 NSCLC
A549 NSCLC = tested on: A549 NSCLC
NCI-H23 lung = tested on: NCI-H23 lung

Work on `COC(=O)C1=CN(CC2=CC(=O)C(C)=CC2=O)C=C(C(=O)OC)C1c1ccccc1OC` yielded a GI50 (A498 renal) of 31.4 µM, a TGI (A498 renal) greater than 87.9 µM and a GI50 (SF-268 CNS) of 18.7 µM. It also gave a TGI (SF-268 CNS) of 58.6 µM, a GI50 (SF-539 CNS) of 21.2 µM and a TGI (SF-539 CNS) of 60.3 µM. The GI50 (SK-MEL-28 melanoma) was 28 µM, the TGI (SK-MEL-28 melanoma) was greater than 57.5 µM and the GI50 (HCT-116 colon) was 22.8 µM. For the same molecule, the TGI (HCT-116 colon) was 66 µM, the GI50 (RPMI-8226 leukemia) was 10.3 µM and the TGI (RPMI-8226 leukemia) was 40.7 µM. For the same molecule, the GI50 (IGROV1 ovarian) was 22.3 µM, the TGI (IGROV1 ovarian) was 57.3 µM and the GI50 (SR leukemia) was 4.01 µM. For the same molecule, the TGI (SR leukemia) was 19.6 µM, the GI50 (LOX IMVI melanoma) was 21.4 µM and the TGI (LOX IMVI melanoma) was 42.9 µM. For the same molecule, the GI50 (OVCAR-5 ovarian) was 19.7 µM, the TGI (OVCAR-5 ovarian) was 34.9 µM and the GI50 (HOP-92 NSCLC) was 9.31 µM. It also gave a TGI (HOP-92 NSCLC) of 21.9 µM, a GI50 (SNB-75 CNS) greater than 100 µM and a TGI (SNB-75 CNS) greater than 100 µM. For the same molecule, the GI50 (SF-295 CNS) was 24.3 µM, the TGI (SF-295 CNS) was greater than 55.5 µM and the GI50 (M14 melanoma) was 17.3 µM. For the same molecule, the TGI (M14 melanoma) was 32.7 µM, the GI50 (HL-60(TB) leukemia) was 4.74 µM and the TGI (HL-60(TB) leukemia) was 18.5 µM. For the same molecule, the GI50 (UACC-62 melanoma) was 13.3 µM, the TGI (UACC-62 melanoma) was 27.5 µM and the GI50 (PC-3 prostate) was 14.9 µM. For the same molecule, the TGI (PC-3 prostate) was 29.8 µM, the GI50 (MDA-MB-435) was 21.8 µM and the TGI (MDA-MB-435) was greater than 53.7 µM. For the same molecule, the GI50 (786-0 renal) was 15.1 µM, the TGI (786-0 renal) was 28.9 µM and the GI50 (MALME-3M melanoma) was 14 µM. The TGI (MALME-3M melanoma) was 33.3 µM, the GI50 (U251 CNS) was 20 µM and the TGI (U251 CNS) was 46.7 µM. The GI50 (BT-549 breast) was 17.4 µM, the TGI (BT-549 breast) was 41 µM and the GI50 (HCC-2998 colon) was 15.5 µM. For the same molecule, the TGI (HCC-2998 colon) was 28.9 µM, the GI50 (SN12C renal) was 14.8 µM and the TGI (SN12C renal) was 32.9 µM. For the same molecule, the GI50 (EKVX NSCLC) was 28.8 µM, the TGI (EKVX NSCLC) was greater than 100 µM and the GI50 (NCI-H460 lung) was 33.7 µM. For the same molecule, the TGI (NCI-H460 lung) was greater than 87.7 µM, the GI50 (COLO 205 colon) was 18.9 µM and the TGI (COLO 205 colon) was 38.2 µM. It also gave a GI50 (CCRF-CEM leukemia) of 5.48 µM, a TGI (CCRF-CEM leukemia) of 14.1 µM and a GI50 (MDA-MB-231 breast) of 9.66 µM. The TGI (MDA-MB-231 breast) was 28 µM, the GI50 (CAKI-1 renal) was 16.7 µM and the TGI (CAKI-1 renal) was 37.9 µM. It also gave a GI50 (NCI-H522 lung) of 23.7 µM, a TGI (NCI-H522 lung) greater than 64.6 µM and a GI50 (NCI/ADR-RES ovarian) of 17.4 µM. The TGI (NCI/ADR-RES ovarian) was 34.8 µM, the GI50 (OVCAR-8 ovarian) was 17.6 µM and the TGI (OVCAR-8 ovarian) was 38.9 µM. The GI50 (MOLT-4 leukemia) was 5.61 µM, the TGI (MOLT-4 leukemia) was 14.2 µM and the GI50 (HS 578T breast) was 25.9 µM. The TGI (HS 578T breast) was 77.8 µM, the GI50 (TK-10 renal) was 16.7 µM and the TGI (TK-10 renal) was 35.4 µM. The GI50 (SK-OV-3 ovarian) was greater than 100 µM, the TGI (SK-OV-3 ovarian) was greater than 100 µM and the GI50 (UO-31 renal) was 16.4 µM. It also gave a TGI (UO-31 renal) of 31.2 µM, a GI50 (SK-MEL-2 melanoma) of 45.2 µM and a TGI (SK-MEL-2 melanoma) greater than 100 µM. It also gave a GI50 (SW-620 colon) of 18.5 µM, a TGI (SW-620 colon) greater than 64.9 µM and a GI50 (KM12 colon) of 23.6 µM. For the same molecule, the TGI (KM12 colon) was greater than 72.3 µM, the GI50 (UACC-257 melanoma) was 22.3 µM and the TGI (UACC-257 melanoma) was 44.3 µM. The GI50 (ACHN renal) was 14.8 µM, the TGI (ACHN renal) was 30.6 µM and the GI50 (RXF 393 renal) was 16.2 µM. For the same molecule, the TGI (RXF 393 renal) was 32.3 µM, the GI50 (MCF7 breast) was 24.4 µM and the TGI (MCF7 breast) was 69.8 µM. The GI50 (DU-145 prostate) was 16.8 µM, the TGI (DU-145 prostate) was 31.3 µM and the GI50 (SNB-19 CNS) was greater than 54.9 µM. For the same molecule, the TGI (SNB-19 CNS) was greater than 100 µM, the GI50 (NCI-H226 lung) was 16.4 µM and the TGI (NCI-H226 lung) was 41.5 µM. For the same molecule, the GI50 (OVCAR-4 ovarian) was 22.5 µM, the TGI (OVCAR-4 ovarian) was greater than 67.4 µM and the GI50 (HCT-15 colon) was 18.9 µM. For the same molecule, the TGI (HCT-15 colon) was 39.2 µM, the GI50 (SK-MEL-5 melanoma) was 14.2 µM and the TGI (SK-MEL-5 melanoma) was 30.4 µM. The GI50 (HT29 colon) was 40.9 µM, the TGI (HT29 colon) was greater than 100 µM and the GI50 (K-562 leukemia) was 0.495 µM. For the same molecule, the TGI (K-562 leukemia) was 14.9 µM, the GI50 (T-47D breast) was 52.8 µM and the TGI (T-47D breast) was greater than 100 µM. The GI50 (OVCAR-3 ovarian) was 13.2 µM, the TGI (OVCAR-3 ovarian) was 26.8 µM and the GI50 (HOP-62 NSCLC) was 23.5 µM. The TGI (HOP-62 NSCLC) was greater than 51 µM, the GI50 (A549 NSCLC) was 29.3 µM and the TGI (A549 NSCLC) was greater than 59.4 µM. It also gave a GI50 (NCI-H23 lung) of 19.5 µM and a TGI (NCI-H23 lung) of 45.6 µM.

Reference: PubChem BioAssay (NCI)
